Experimental data published in patent US8729122B2, “Pharmaceutical and nutraceutical compositions of abscisic acid” (Valent BioSciences Corporation, priority 2010, dated 2014).
Several values for one entry are separate records, joined by “and”; a condition that tells them apart may be missing. Identical values can stand only once.

Key:
[1] = test system: rats; experiment: 21-day Dermal Toxicity Study, removal of adhesive bandage; type: in vivo; conditions: for Total No. of Removals (adhesive bandage), individual animals: 3 weeks
Description: Animals were allocated to dose groups and treated as follows:
Animals were dosed daily by dermal administration, with an exposure period of 6 hours, 7 days/week for a period of 3 weeks.
The lumbar region of the animals was clipped to expose the skin (approximately 6×6 cm) with the test formulation being spread evenly over this area. A dressing of foil gauze and self adhesive bandage was wrapped around the torso to prevent oral ingestion. Following 6 hours of exposure the dressings were removed and the dose area wiped clean with a cloth dampened with distilled water.
During the dosing period it was noted that some animals were able to get the adhesive bandage off during the 6 hour exposure period.

[2] = Fetal data at scheduled necropsy; type: in vivo, rats
From the text: Observations and testing results from this study can be seen in Tables 1, 3 and 6-13 below.
Further supporting data can be seen below in Tables 10 and 11 showing that at necropsy fetus numbers and follicle size increase with the addition of S-ABA.

[3] = test system: rats; experiment: Rat neurotoxicity testing; type: in vivo; conditions: especially female
[4] = test system: rats; experiment: 90-Day Oral Toxicity Study in Rodents (dietary S-ABA); type: in vivo; conditions: for PROSTATE WEIGHT, mean: 90 days
Description: Tests were conducted with (S)-(+)-abscisic acid in accordance with standard guidelines and procedures as evidenced by EPA Subchronic Toxicity Test Guidelines: 870.3050—Repeated Dose 28-Day Oral Toxicity Study in Rodents (July 2000); 870.3100—90-Day Oral Toxicity in Rodents (August 1998); 870.3650—Combined Repeated Dose Toxicity Study with the Reproduction/Developmental Toxicity Screening Test (July 2000); and 870.3200—21/28-Day Dermal Toxicity (August 1998), as well as Organization for Economic Co-operation and Development (OECD) Guidelines for the Testing of Chemicals including: Test No. 407: Repeated Dose 28-day Oral Toxicity Study in Rodents; Test No. 408: Repeated Dose 90-Day Oral Toxicity Study in Rodents; Test No. 416: Two-Generation Reproduction Toxicity; and Test No. 410: Repeated Dose Dermal Toxicity: 21/28-day Study.
90-Day Oral Toxicity Study in Rodents
From the batch supplied (42 males and 42 females), 40 males and 40 females were assigned to the study. Animals were allocated to 4 dose groups and treated as follows:
The animals were dosed by the dietary route 7 days/week for 13 consecutive weeks and up to immediately before terminal kill. Control animals received blank diet only. The concentration was constant throughout the treatment period. Detailed examinations were conducted on all animals during Weeks 4, 8 and 12. Histopathological evaluation of all tissues was undertaken for all animals in the Control and dose groups. Observations and testing results from this study can be seen in Tables 2, 4 and 5 below.
In a 90 day toxicity study in rats, glucose and triglyceride levels were measured.

[5] = test system: rats; experiment: Two Generation Reproduction Toxicity Study (dietary S-ABA); type: in vivo
Description: Two Generation Reproduction Toxicity Study
This study was conducted to determine the potential adverse effects of the test substance on reproduction in a 2-generation study. This included determining the effects of the test substance on male and female reproductive processes, including gonadal function, estrous cyclicity, mating behavior, conception, gestation, parturition, lactation, weaning, and on growth and development of the offspring. A minimum of 1 litter was produced in each generation.
Three groups of male and female were offered S-ABA, continuously in the diet for at least 70 consecutive days prior to mating. Target tests substance concentrations were 10,000, 15,000, and 20,000 ppm for the F0 and F1 generations. A concurrent control group of 30 rats/sex was offered the basal diet continuously throughout the study. F0 animals were approximately 7 weeks of age at the initiation of test diet administration. The test diet was administered to the offspring selected to become the F1 generation following weaning. The F0 and F1 males continued to receive the test substance throughout mating and continuing through the day prior to euthanasia. The F0 and F1 females continued to receive the test substance throughout mating, gestation, and lactation, and through the day of euthanasia. For both generations (F1 and F2), 8 pups per litter (4 per sex, when possible) were selected to reduce the variability among the litters. Offspring (30/sex/group, if possible) from the pairing of the F0 animals were selected to constitute the F1 generation.
All animals were observed twice daily for appearance and behavior. Clinical observations, body weights, and food consumption were recorded at appropriate intervals for males throughout the study and for females prior to mating and during gestation and lactation. All F0 and F1 females were allowed to deliver and rear their pups until weaning on lactation day 21. Clinical observations, body weights, and sexes for F1 and F2 pups were recorded at appropriate intervals. Nonselected F1 pups and all surviving F2 pups were necropsied. Selected organs were weighed from 1 pup/sex/litter from F1 and F2 pups that were necropsied. Each surviving F0 and F1 parental animal received a complete detailed gross necropsy following the completion of weaning of the F1 and F2 pups, respectively; selected organs were weighed. Spermatogenic endpoints were recorded for all F0 and F1 males, and ovarian primordial follicle counts were recorded for all F0 and F1 females in the control and high-exposure groups and all F0 and F1 females suspected of reduced fertility. Designated tissues from all F0 and F1 parental animals were examined microscopically.

## CC1=CC(=O)CC(C)(C)[C@@]1(O)/C=C/C(C)=C\C(=O)O [S-ABA, (S)-(+)-abscisic acid]
[1]; female rats in the treatment group
  ability to remove the adhesive bandage: much better at removing the adhesive bandage
[1]; group 2F, females, 100 mg/kg/day dermal, 100 mg/kg/day
  Total No. of Removals (adhesive bandage), individual animals: 4 and 1
[1]; group 2M, males, 100 mg/kg/day dermal
  Total No. of Removals (adhesive bandage), individual animals: 1
[1]; group 3F, females, 300 mg/kg/day dermal, 300 mg/kg/day
  Total No. of Removals (adhesive bandage), individual animals: 2 and 3
[1]; group 4F, females, 1000 mg/kg/day dermal, 1000 mg/kg/day
  Total No. of Removals (adhesive bandage), individual animals: 3 and 7 and 6
[1]; group 4M, males, 1000 mg/kg/day dermal
  Total No. of Removals (adhesive bandage), individual animals: 1
[2]; group 2, 500 MG/KG/DAY
  FEMALE fetuses at scheduled necropsy, MEAN: 7.2
  MALE fetuses at scheduled necropsy, MEAN: 7.5
  VIABLE FETUSES at scheduled necropsy, MEAN: 14.7
[2]; group 3, 750 MG/KG/DAY
  FEMALE fetuses at scheduled necropsy, MEAN: 6.6
  MALE fetuses at scheduled necropsy, MEAN: 7.5
  VIABLE FETUSES at scheduled necropsy, MEAN: 14.2
[2]; group 4, 1,000 MG/KG/DAY
  FEMALE fetuses at scheduled necropsy, MEAN: 8.3
  MALE fetuses at scheduled necropsy, MEAN: 6.8
  VIABLE FETUSES at scheduled necropsy, MEAN: 15.1
[3]
  alertness: heighten alertness
[4]; group 2, 2,000 ppm in diet
  PROSTATE WEIGHT, mean: MEAN = 0.731 GRAMS
[4]; group 3, 6,000 ppm in diet
  PROSTATE WEIGHT, mean: MEAN = 0.908 GRAMS
[4]; group 4, 20,000 ppm in diet
  PROSTATE WEIGHT, mean: MEAN = 0.827 GRAMS
[4]; male and female rats, 2,000 ppm to 20,000 ppm
  effect on triglyceride levels: dose dependent decrease in triglyceride levels
[5]; 10,000 PPM
  SPERM PRODUCTION RATE, mean: 10.3 MILLIONS/GRAM/DAY
[5]; 10,000 ppm
  Mean Live Offspring Born (per litter): 12.3
  Offspring Born: 322
  Offspring FOUND DEAD: 4
  POSTNATAL SURVIVAL, BIRTH-4 (PRE-SELECT), mean: 98.6 % PER LITTER
  POSTNATAL SURVIVAL, POSTNATAL DAY 0 (RELATIVE TO # BORN), mean: 99.7 % PER LITTER
  POSTNATAL SURVIVAL, POSTNATAL DAY 0-1, mean: 100.0 % PER LITTER
  POSTNATAL SURVIVAL, POSTNATAL DAY 1-4 (PRE-SELECTION), mean: 98.9 % PER LITTER
  POSTNATAL SURVIVAL, POSTNATAL DAY 4 (POST-SELECT)-21, mean: 99.5 % PER LITTER
  POSTNATAL SURVIVAL, POSTNATAL DAY 4 (POST-SELECTION)-7, mean: 99.5 % PER LITTER
  POSTNATAL SURVIVAL, POSTNATAL DAY 7-14, mean: 100.0 % PER LITTER
  POSTNATAL SURVIVAL, POSTNATAL DAY 14-21, mean: 100.0 % PER LITTER
[5]; 10,000 ppm, female, postnatal day 1
  OFFSPRING WEIGHT, mean: 6.6 grams
[5]; 10,000 ppm, female, postnatal day 4
  OFFSPRING WEIGHT, mean: 9.1 grams
[5]; 10,000 ppm, female, postnatal day 7
  OFFSPRING WEIGHT, mean: 14.3 grams
[5]; 10,000 ppm, female, postnatal day 14
  OFFSPRING WEIGHT, mean: 29.9 grams
[5]; 10,000 ppm, female, postnatal day 21
  OFFSPRING WEIGHT, mean: 45.5 grams
[5]; 10,000 ppm, male, postnatal day 1
  OFFSPRING WEIGHT, mean: 7.1 grams
[5]; 10,000 ppm, male, postnatal day 4
  OFFSPRING WEIGHT, mean: 9.7 grams
[5]; 10,000 ppm, male, postnatal day 7
  OFFSPRING WEIGHT, mean: 15.2 grams
[5]; 10,000 ppm, male, postnatal day 14
  OFFSPRING WEIGHT, mean: 30.9 grams
[5]; 10,000 ppm, male, postnatal day 21
  OFFSPRING WEIGHT, mean: 47.9 grams
[5]; 10,000 ppm, control 4.57%
  offspring mortality: 1.24%
[5]; 15,000 PPM
  SPERM PRODUCTION RATE, mean: 10.7 MILLIONS/GRAM/DAY
[5]; 15,000 ppm
  Mean Live Offspring Born (per litter): 13.1
  Offspring Born: 375
  Offspring FOUND DEAD: 15
  POSTNATAL SURVIVAL, BIRTH-4 (PRE-SELECT), mean: 93.2 % PER LITTER
  POSTNATAL SURVIVAL, POSTNATAL DAY 0 (RELATIVE TO # BORN), mean: 96.1 % PER LITTER
  POSTNATAL SURVIVAL, POSTNATAL DAY 0-1, mean: 98.5 % PER LITTER
  POSTNATAL SURVIVAL, POSTNATAL DAY 1-4 (PRE-SELECTION), mean: 98.5 % PER LITTER
  POSTNATAL SURVIVAL, POSTNATAL DAY 4 (POST-SELECT)-21, mean: 98.2 % PER LITTER
  POSTNATAL SURVIVAL, POSTNATAL DAY 4 (POST-SELECTION)-7, mean: 99.6 % PER LITTER
